Earlier results in patent US20190021385A1, “ORALLY DISSOLVABLE COMPOSITIONS FOR NUTRITION SUPPLEMENTATION” (Exeltis USA, Inc., priority 2017, published 2019).

Details: intake of about 1000 IU per day, all adults; Bischoff-Ferrari 2008

SMILES: C=C1CC[C@H](O)C/C1=C/C=C1\CCC[C@]2(C)[C@@H]([C@H](C)CCCC(C)C)CC[C@@H]12 [vitamin D3, cholecalciferol]
- share of the population brought up to the 30 ng/ml serum range for 25-hydroxyvitamin D: at least 50%
